Laboratory results taken from paper PMC3510490, “Structure of Actin-related protein 8 and its contribution to nucleosome binding” (Nucleic Acids Research, 2012).

Experiments:
yeast Arp8 = biological target: T1, yeast Arp8 (Saccharomyces cerevisiae, UniProt Q12386); assay: […] phosphate release, TLC; format: biochemical; details: 100 µM ATP with 5 nM [γ-32P]ATP (labelled compound), 2 mM MgCl2, pH 7.9, 30 °C
T1 construct: recombinant from HighFive insect cells, prepared as described previously; monomer
T1 sequence (Q12386 1-881): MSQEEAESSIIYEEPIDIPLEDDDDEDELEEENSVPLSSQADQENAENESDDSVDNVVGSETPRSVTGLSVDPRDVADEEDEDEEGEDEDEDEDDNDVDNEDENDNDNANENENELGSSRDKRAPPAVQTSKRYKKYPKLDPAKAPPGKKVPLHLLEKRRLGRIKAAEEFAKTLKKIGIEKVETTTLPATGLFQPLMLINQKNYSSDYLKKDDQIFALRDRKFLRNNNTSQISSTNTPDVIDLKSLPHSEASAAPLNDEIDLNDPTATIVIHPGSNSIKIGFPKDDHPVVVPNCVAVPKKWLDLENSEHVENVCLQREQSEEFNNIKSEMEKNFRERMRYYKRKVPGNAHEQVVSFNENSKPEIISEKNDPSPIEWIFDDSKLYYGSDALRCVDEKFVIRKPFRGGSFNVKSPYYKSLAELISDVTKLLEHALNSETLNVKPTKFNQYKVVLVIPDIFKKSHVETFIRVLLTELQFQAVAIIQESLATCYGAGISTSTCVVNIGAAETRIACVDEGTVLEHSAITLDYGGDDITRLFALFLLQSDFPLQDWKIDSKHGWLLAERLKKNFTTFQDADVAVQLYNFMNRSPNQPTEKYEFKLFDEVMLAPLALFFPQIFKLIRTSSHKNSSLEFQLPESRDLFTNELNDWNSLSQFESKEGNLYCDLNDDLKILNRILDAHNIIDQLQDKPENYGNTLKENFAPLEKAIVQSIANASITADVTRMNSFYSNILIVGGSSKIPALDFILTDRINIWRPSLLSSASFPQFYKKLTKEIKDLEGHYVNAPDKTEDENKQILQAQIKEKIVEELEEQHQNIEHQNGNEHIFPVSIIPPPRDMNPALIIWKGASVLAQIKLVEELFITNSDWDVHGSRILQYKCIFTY

[1] = biological target: T2, Homo sapiens Arp8 (Δ1–33) (Homo sapiens, UniProt Q9H981); assay: X-ray crystal structure, […] Å; details: ATP co-purified from expression host, not added; one metal ion (likely Mg2+); nucleotide-binding cleft; pH 6.1
T2 construct: gene ACTR8; N-terminal 8xHis tag cleaved by PreScission protease; E. coli BL21(DE3); monomer
T2 sequence (Q9H981 34-624, stated change not applied): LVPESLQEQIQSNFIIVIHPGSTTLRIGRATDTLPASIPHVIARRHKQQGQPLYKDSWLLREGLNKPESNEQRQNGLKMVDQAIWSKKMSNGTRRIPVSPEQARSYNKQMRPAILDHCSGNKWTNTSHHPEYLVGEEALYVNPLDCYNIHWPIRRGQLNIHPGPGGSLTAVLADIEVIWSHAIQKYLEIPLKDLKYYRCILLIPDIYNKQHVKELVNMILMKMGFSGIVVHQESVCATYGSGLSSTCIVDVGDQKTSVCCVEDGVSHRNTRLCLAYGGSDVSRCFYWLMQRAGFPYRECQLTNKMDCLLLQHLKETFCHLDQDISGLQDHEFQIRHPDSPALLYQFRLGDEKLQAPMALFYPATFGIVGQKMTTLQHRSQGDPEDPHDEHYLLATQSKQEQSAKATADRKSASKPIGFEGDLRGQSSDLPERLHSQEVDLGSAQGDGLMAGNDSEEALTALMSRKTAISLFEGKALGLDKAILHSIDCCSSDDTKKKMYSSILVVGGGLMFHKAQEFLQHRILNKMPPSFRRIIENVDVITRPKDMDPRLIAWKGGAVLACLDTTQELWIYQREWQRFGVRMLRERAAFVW

human Arp8 = biological target: T3, human Arp8 (Homo sapiens, UniProt Q9H981); assay: […] phosphate release, TLC; format: biochemical; details: 100 µM ATP with 5 nM [γ-32P]ATP (labelled compound), 2 mM MgCl2, pH 7.9, 30 °C; construct (full-length or Δ1-33) not stated
T3 construct: gene ACTR8; monomer
T3 sequence (Q9H981 whole entry): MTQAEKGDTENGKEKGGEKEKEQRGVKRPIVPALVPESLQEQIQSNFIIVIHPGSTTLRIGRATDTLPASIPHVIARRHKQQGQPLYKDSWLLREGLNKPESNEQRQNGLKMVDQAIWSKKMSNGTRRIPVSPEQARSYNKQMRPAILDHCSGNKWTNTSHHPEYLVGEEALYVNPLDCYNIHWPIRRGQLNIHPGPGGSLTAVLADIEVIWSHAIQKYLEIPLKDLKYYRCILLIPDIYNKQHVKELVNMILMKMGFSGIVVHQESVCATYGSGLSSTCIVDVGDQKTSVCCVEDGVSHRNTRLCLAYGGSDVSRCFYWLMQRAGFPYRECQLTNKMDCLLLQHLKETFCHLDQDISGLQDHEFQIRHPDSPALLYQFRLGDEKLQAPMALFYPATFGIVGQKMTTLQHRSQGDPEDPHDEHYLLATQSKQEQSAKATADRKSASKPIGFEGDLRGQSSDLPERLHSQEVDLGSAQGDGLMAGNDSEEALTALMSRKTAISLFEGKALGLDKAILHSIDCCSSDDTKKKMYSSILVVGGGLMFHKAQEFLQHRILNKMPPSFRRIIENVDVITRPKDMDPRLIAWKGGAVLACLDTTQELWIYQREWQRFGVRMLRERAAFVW

[2] = biological target: T4, Saccharomyces cerevisiae INO80 sub-complex I (Arp8–Arp4–actin-HSA) (Saccharomyces cerevisiae, UniProt P60010+Q12386); assay: […] phosphate release, TLC; format: biochemical; details: 100 µM ATP with 5 nM [γ-32P]ATP (labelled compound), 2 mM MgCl2, pH 7.9, 30 °C; active subunit not resolved (Arp8 and/or actin)
T4 construct: co-expressed Arp4, Arp8, actin and His6-Ino80(462-685) in HighFive insect cells; monomeric complex; with Actin-related protein 4; Chromatin-remodeling ATPase INO80

Compound: Nc1ncnc2c1ncn2[C@@H]1O[C@H](COP(=O)(O)OP(=O)(O)OP(=O)(O)O)[C@@H](O)[C@H]1O [ATP]
- low basal ATPase activity (yeast Arp8): yeast and human Arp8 possess a low basal ATPase activity
- X-ray crystal structure, 2.6 Å [1]: Electron density in the nucleotide-binding cleft of actin could clearly be assigned to ATP
- low basal ATPase activity (human Arp8): yeast and human Arp8 possess a low basal ATPase activity
- low basal ATPase activity [2]: sub-complex I (Arp8–Arp4–actin-HSA) also shows a low basal ATPase activity
